Source: US5759836A, “Osteoarthritis-associated inducable isoform of nitric oxide synthetase” (priority 1995, dated 1998)
Entries after “also recorded” stand apart in the source; their conditions may differ. Read-outs that look alike come from different tables or passages of the source.

Assays:
OA-NOS [1] = experiment: Sensitivity of OA-NOS to agents (Table 3 comparison)
[2] = systemic, rodent; cited from earlier work
OA-NOS [3] = experiment: Nitrite release by OA-affected articular cartilage, ex vivo organ culture; assay type: cell-based, human
iNOS [4] = experiment: Nitrite accumulation in LPS-stimulated RAW 264.7 murine macrophages (Griess method); assay type: cell-based; conditions: for inhibition at 5 µM: RAW264.7, read-out: Nitrite released, % inhibition, 5 μM (Table 2: 5 μm)
Description: Effects of NSAIDs on Nitrite Accumulation. […] The expression and activity of iNOS were monitored by estimation of the stable end-product: nitrites.
concentrations of NSAIDs for 2 h followed by addition of 100 ng/ml of LPS
After 16-18 h of incubation, the medium was used to estimate the
accumulation of nitrite by the Greiss method (Green et al., Anal Biochem.
(§1) The specific activity of iNOS was determined in cellfre
(§2) extracts at a given time period as described. The nitrite and specific
activity data are representative of mean ± SD value, as determined by
student t test, for 10 and 4 independent experiments, respectively. The p
values described are compared with LPSstimulated cells. […]

iNOS [5] = experiment: iNOS expression in stimulated rat chondrosarcomas; assay type: cell-based; conditions: for effect on iNOS in rat chondrosarcomas: LPS/cytokine-stimulated, L-NMMA 500 μM, indomethacin 20 μM; for inhibition of iNOS expression in rat chondrosarcomas: 72 h, added 1 h prior to cytokines
Description: NSAIDs were tested in: (FIG. 5A) rat chondrosarcomas stimulated with LPS, and (FIG. 5B) unstimulated OA cartilage (n=3).

[6] = cited from earlier work; for NO biosynthesis, paw swelling and histopathological changes in ankle joints: rat adjuvant arthritis
human chondrocyte iNOS = conditions: cited from earlier work
NOS = conditions: cited from earlier work
iNOS [7] = experiment: Specific activity of iNOS in cell-free extracts of RAW 264.7 cells exposed to drug during LPS induction; assay type: cell-based, murine
Description: Assays for iNOS in Cell-Free Extracts. […] The reaction mixture for iNOS assay (in cell-free extracts) consists of Tris […] (pH 7.8); BSA 1 mg/ml; DTT 1 mM; CaCl2, 2 mM; FAD 10 μM; BH4 10 μM; L-arginine 30 μM; NADPH 1 mM. The assay mixture for cNOS consists of Tris 50 mM (pH 7.8); L-arginine 50 μM; calmodulin 10 μg/ml; BH4 10 μM; CaCl2 2 mM; NADPH 100 μM. RAW 264.7 cells were induced with LPS in the presence and absence of NSAIDs for 16-18 h. […] Cells were re-pelleted at 4° C. and resuspended in Tris buffer (10 mM, pH 7.4) containing 1 mg/ml each chymostatin, antipain, leupeptin and pepstatin, 1 mM DTT and 1 mM PMSF. Cells were lysed in a Polytron PT 1200 homogenizer (Kinematica AG, Switzerland) after 3 cycles of rapid freeze-thawing. The lysate was centrifuged at 16,000 rpm for 60 min at 4° C., and the supernatants were used as cell-free extracts. […] After 20 min the assays were terminated by heating the reaction mixture at 90° C. for 5 min. The precipitates were removed by centrifuging at 15,000 rpm for 20 min. Ten microliters (≈50,000 cpm) of the supernatant was spotted on activated Avicel TLC plates (Analtech, Newark, Del.). The TLC plates were developed in a solvent system consisting of ethanol:water:ammonia (80:16:4). Quantitation of the spot for L-[^3 3H]-citrulline was performed by a Bioscan System 200 Imaging Scanner. A phosphoimager can also be used for such quantification.
as §1, §2

iNOS [8] = experiment: In vitro iNOS catalytic activity in cell-free extracts preincubated with drug (L-[3H]-arginine to L-[3H]-citrulline); assay type: biochemical, murine; conditions: for inhibition of iNOS catalytic activity in cell-free extracts (specific activity in in vitro assay): 1 mM
iNOS [9] = experiment: iNOS protein expression, Western blot, LPS-treated RAW 264.7 cells; assay type: cell-based, murine
Description: Western Blot Analysis. Equal amounts of protein (50 μg) estimated by BCA reagent (Pierce, Rockford, Ill.) were loaded onto SDS-PAGE gels and stained to verify the concentrations of various protein fractions by examining the intensities of the protein bands on the gels. Western blot analysis was carried out from the same cell extracts. The Western-blotted membrane was probed with a specific anti-iNOS monoclonal antibody, as specified by Transduction Laboratories (Lexington, Ky.). The blots were developed using the ECL Western blot system (Amersham, Arlington Heights, Ill.). Quantitation of the bands was performed using a densitometer from Molecular Dynamics (Sunnyville, Calif.).
The protein expression data are represented as
ND = not done. NS = not significant.
A Western blot analysis of iNOS protein was carried out in cells treated with […] LPS in the presence and absence of NSAIDs for 16-18 h.

COX = conditions: cited from earlier work
iNOS [10] = conditions: cited from earlier work
human iNOS = conditions: crude lysates; cited from earlier work
rabbit chondrocytes = conditions: cited from earlier work
neutrophil = conditions: data not shown; read-out: ability to inhibit fMet-Leu-Phe-induced neutrophil aggregation (IC50); cited from earlier work
NF-κB = conditions: cited from earlier work
[11] = Mus musculus, LPS 100 ng/ml, 16-18 h

TGF-β
sensitivity of OA-NOS (OA-NOS [1]): insensitive; also recorded: not sensitive

TNF-α
arthritis morbidity / protection [2]: increase arthritis morbidity

C[C@@H]1C[C@@H]([C@H](O)CC2CC(=O)NC(=O)C2)C(=O)[C@@H](C)C1 [cycloheximide]
inhibition at 3.5 µM (OA-NOS [3]; Homo sapiens, 3.5 μM, 24 h, read-out: inhibition of nitrite accumulation): > 90% | inhibition at 17.5 µM (OA-NOS [3]; Homo sapiens, 17.5 μM, 24 h, read-out: inhibition of nitrite accumulation): > 90% | block of nitrite accumulation (OA-NOS [3]; cycloheximide 35 μM or PDTC 30 μM, 24 h, cytokine/endotoxin-induced and control cartilage): > 90% | sensitivity of OA-NOS (OA-NOS [1]): blocked; also recorded: shows sensitivity

CC(=O)Nc1ccc(O)cc1 [Acetaminophen, acetaminophen]
block of nitrite production (iNOS [4]; 60-120 μM, LPS-stimulated): 1±1% | effect on iNOS in rat chondrosarcomas (iNOS [5]): no significant effect on iNOS expression

CC(C)Cc1ccc(C(C)C(=O)O)cc1 (stereo not drawn) [ibuprofen]
effect on iNOS in rat chondrosarcomas (iNOS [5]): no significant effect on iNOS expression

N=C(N)NN [aminoguanidine]
effect on nitrite accumulation / NOS expression in OA cartilage (OA-NOS [3]): inhibited | sensitivity of OA-NOS (OA-NOS [1]): blocked; also recorded: shows sensitivity

N=C(N)NCCC[C@H](N)C(=O)O [L-arginine]
NO biosynthesis, paw swelling and histopathological changes in ankle joints [6]: competitively reversed the effect of L-NMMA

C[C@@H]1C[C@H]2[C@@H]3CCC4=CC(=O)C=C[C@]4(C)[C@@]3(F)[C@@H](O)C[C@]2(C)[C@@]1(O)C(=O)CO [dexamethasone]
sensitivity of human chondrocyte iNOS (human chondrocyte iNOS): lack of sensitivity | NOS expression in murine macrophages, endothelial cells and smooth muscles (NOS): abolishes NOS expression

COc1ccc2c(c1)c(CC(=O)O)c(C)n2C(=O)c1ccc(Cl)cc1 [Indomethacin, indomethacin]
extent of inhibition of nitrite accumulation (iNOS [4]): not appreciably greater than that seen with 5 μM | inhibition at 5 µM (iNOS [4]; [11]): ~7% | inhibition at 5 µM (iNOS [7]; Mus musculus, RAW264.7, 16 h, read-out: Specific activity, % inhibition, 5 μM (Table 2: 5 μm), cell-free extracts, 16 h): 2% | inhibition of iNOS specific activity in in vitro assay (iNOS [8]; 5 μM, 20 min preincubation): 0% | inhibition at 5 µM (iNOS [9]; Mus musculus, RAW264.7, read-out: inhibition of iNOS protein expression, 5 μm (Table 2)): 0% | rank order of inhibition of spontaneous nitrite accumulation (OA-NOS [3]): aspirin>indomethacin>sodium salicylate | COX inhibition (COX): a potent inhibitor of COX

TGF-β1: cytokine TGF-β1
iNOS expression in macrophages (iNOS [10]): suppresses iNOS expression | arthritis morbidity / protection [2]: significant degree of protection

NC(=O)N1C(=O)/C(=C(\O)c2cccs2)c2cc(Cl)ccc21 [tenidap]
inhibition of iNOS expression in rat chondrosarcomas (iNOS [5]): ~ 50% | effect on iNOS in rat chondrosarcomas (iNOS [5]): significant inhibition of iNOS

O=C(O)CN(CCN(CC(=O)O)CC(=O)O)CC(=O)O [EDTA, ethylenediaminetetraacetic acid]
human iNOS activity (human iNOS): markedly reduces

CN=C(N)NCCC[C@H](N)C(=O)O [L-NMMA, N^G -monomethyl-L-arginine acetate]
inhibition of iNOS expression in rat chondrosarcomas (iNOS [5]): ~ 65% | effect on iNOS in rat chondrosarcomas (iNOS [5]): significant inhibition of iNOS | effect on nitrite accumulation / NOS expression in OA cartilage (OA-NOS [3]; unstimulated OA cartilage, L-NMMA 500 μM, indomethacin 5 μM): inhibited | paw swelling ([6]; partial inhibition of NOS): sufficient to reduce paw swelling | NO biosynthesis, paw swelling and histopathological changes in ankle joints [6]: blocked (in a dose-dependent manner) | proteoglycan synthesis (rabbit chondrocytes): restored proteoglycan synthesis | sensitivity of OA-NOS (OA-NOS [1]): blocked; also recorded: shows sensitivity

CC(=O)n1ccnc1 [N-acetylimidazole]
inhibition of iNOS catalytic activity in cell-free extracts (specific activity in in vitro assay) (iNOS [8]; 20 min preincubation): ~ 74% | inhibition of iNOS catalytic activity in cell-free extracts (specific activity in in vitro assay) (iNOS [8]; 20 min preincubation, listed as NAI): 74% | cyclooxygenase and peroxidase activity of COX (COX): inhibits both the cyclooxygenase and the peroxidase activity of COX

C[C@]12CCC(=O)C=C1CC[C@@H]1[C@@H]2[C@@H](O)C[C@@]2(C)[C@H]1CC[C@]2(O)C(=O)CO [Hydrocortisone, hydrocortisone]
Nitrite released, % inhibition (iNOS [4]; 5 μM (Table 2: 5 μm), LPS 100 ng/ml, 16-18 h, 5 µM): 63.0% | inhibition at 5 µM (iNOS [4]; [11]): > 60% | effect on iNOS in rat chondrosarcomas (iNOS [5]): no significant effect on iNOS expression | sensitivity of human chondrocyte iNOS (human chondrocyte iNOS): lack of sensitivity | NOS expression in murine macrophages, endothelial cells and smooth muscles (NOS): abolishes NOS expression | sensitivity of OA-NOS (OA-NOS [1]): insensitive; also recorded: not sensitive

O=C([O-])c1ccccc1O.[Na+] [Sodium salicylate, sodium salicylate]
Nitrite released, Nitrite (iNOS [4]; 3 mM, LPS 100 ng/ml, 16-18 h): 27.1 ± 8.8 µM | IC50 (iNOS [4]; Mus musculus, RAW264.7, read-out: IC50 with respect to nitrite accumulation): 20 mM | inhibition at 3000 µM (iNOS [4]; Mus musculus, RAW264.7, read-out: Nitrite released, % inhibition, 3 mM, LPS 100 ng/ml, 16-18 h): ~7% | inhibition at 20000 µM (iNOS [4]; Mus musculus, RAW264.7, read-out: inhibition of accumulation of nitrites, 20 mM, suprapharmacological): 50% | inhibition at 5000 µM (iNOS [4]; Mus musculus, RAW264.7, read-out: inhibition of nitrite accumulation, 5 mM, suprapharmacological): 15 ± 1% | Specific activity of iNOS (iNOS [7]; 3 mM): 304.0 ± 48.1 pmol/min/mg protein | inhibition at 3000 µM (iNOS [7]; Mus musculus, RAW264.7, 16 h, read-out: Specific activity, % inhibition, 3 mM, cell-free extracts, 16 h): 2% | effect on specific activity of iNOS (iNOS [7]; NaSal 3 mM, indomethacin 5 μM (Table 1), therapeutic concentrations): did not inhibit | inhibition of iNOS catalytic activity in cell-free extracts (specific activity in in vitro assay) (iNOS [8]; 20 min preincubation): ~ 1% | effect on the catalytic activity of iNOS (iNOS [8]; indomethacin 5 μM, sodium salicylate 1 mM): no significant differences; also recorded: no significant effect on the catalytic activity of iNOS | inhibition of iNOS expression (iNOS [9]; 2-3 mM, variable in 4 independent experiments): 0-35% | effect on iNOS expression at increased concentration (iNOS [9]; 5 and 20 mM): did not cause increased inhibition of iNOS expression | inhibition at 2000 µM (iNOS [9]; Mus musculus, RAW264.7, read-out: inhibition of iNOS expression, 2 mM, Western blot, 16-18 h): ~15% | inhibition at 3000 µM (iNOS [9]; Mus musculus, RAW264.7, read-out: inhibition of iNOS protein expression, 3 mM, approximate, densitometry): ~15% | inhibition of iNOS expression in rat chondrosarcomas (iNOS [5]): ~ 55% | effect on iNOS in rat chondrosarcomas (iNOS [5]): significant inhibition of iNOS | effect on nitrite accumulation / NOS expression in OA cartilage (OA-NOS [3]): blocked iNOS expression in OA cartilage | rank order of inhibition of spontaneous nitrite accumulation (OA-NOS [3]): aspirin>indomethacin>sodium salicylate | IC50 (neutrophil): 3 mM | activation of NF-κB (NF-κB; 5-20 mM, suprapharmacological): interfere in the activation of NF-κB | NF-κB-dependent transcription (NF-κB; aspirin 3 mM, sodium salicylate 5 mM, luciferase reporter): inhibit NF-κB-dependent transcription | NF-κB activation, gel shift assays (NF-κB; same concentrations (aspirin 3 mM; sodium salicylate 5 mM)): no significant effect on NF-κB activation | COX inhibition (COX): an ineffective inhibitor of COX | sensitivity of OA-NOS (OA-NOS [1]): inhibited; also recorded: shows sensitivity
